The text below walks through data of patent publication US20070105810A1, “THERAPEUTICS” (priority 2003, published 2007).

Molecules are shown by their SMILES. “Also recorded” adds a separate entry of the source.

The subject of data set [1] is IP3-induced Ca2+ signal in Jurkat T cells. The experiment in a line: Ca2+ signalling evoked by microinjection of IP3 in Jurkat T cells. It is filed as cell-based, human. As to conditions: co-injection of BZ52 1 mM with IP3 4 μM. On the procedure:
NAADP (final concentration 100 nM), IP3 (final concentration 4 μM), and BZ52 (final concentration 1 mM) were injected into single Jurkat T cells while [Ca^2+]i was analyzed by Ca^2+ imaging. Data are presented as mean±SEM (n=4 to 13).
The Jurkat T cells were loaded with fura-2/AM and kept in the dark at room temperature until use. Glass coverslips were coated first with BSA (5 mg/ml) and subsequently with poly-L-lysine (0.1 mg/ml). Small chamber slides consisting of a rubber O-ring were sealed on thin (0.1 mm) glass coverslips by silicon grease. Then, 60 μl buffer A containing 140 mM NaCl, 5 mM KCl, 1 mM MgSO4, 1 mM CaCl2, 1 mM NaH2PO4, 5.5 mM glucose, and 20 mM HEPES (pH 7.4), and 40 μl cell suspension (2*10^6 cells/ml) suspended in the same buffer were added into the small chamber and the coverslip was mounted on the stage of a fluorescence microscope (Leica DM IRE2).
Ratiometric Ca^2+ imaging was performed as described earlier. In brief, we used an Improvision imaging system (Heidelberg, Germany) built around the Leica microscope at 100-fold magnification. Illumination at 340 and 380 nm was carried out using a monochromator system (Polychromator IV, TILL Photonics, Graefelfing, Germany). Images were taken with a gray-scale CCD camera (type C4742-95-12ER; Hamamatsu, Enfield, United Kingdom; operated in 8-bit mode). […]

In data set [2] the test system is T cell receptor/CD3 complex mediated Ca2+ signalling. Briefly: T cell receptor/CD3 complex mediated Ca2+ signalling in human T cells. The data set is classed as cell-based. On the procedure: Intact Jurkat T-lymphocytes were loaded with fura2/AM. Ratiometric determination of [Ca^2+]i was carried out in cell suspension in a Hitachi F2000 fluorometer at room temperature at excitation wavelengths of 340 and 380 nm (alternating) and an emission wavelength of 495 nm. Each experiment was calibrated by addition of Triton X100 (10% v/v final concentration) to obtain the maximal ratio and subsequent addition of 4 mM EGTA/40 mM Tris-base to obtain the minimal ratio.
[Ca^2+]i was measured by using the fluorescent indicator Fura2/AM. In brief, 10^7 cells were loaded with Fura2/AM, and fluorescence was determined in batches of 1.5×10^6 cells with an Hitachi F-2000 fluorimeter at excitation and emission wavelengths of 340 and 380 nm (exc.) and 505 nm (em.), respectively. Measurements were carried out at 20° C. At the end of each single measurement maximal and minimal ratios were determined by addition of Triton X-100 and EGTA/Tris.

The next data set relates to OVA-specific T cells. The experiment in a line: Proliferation of cultured OVA-specific T cells. It is filed as cell-based.
A short description of data set [3]: Tolerability of intraperitoneal injection in Lewis rats. It is filed as in vivo. From the text:
Limited solubility of BZ194 excluded intravenous application due to embolic complications.

For a further data set, the system named is TMBP-GFP cells. Briefly: Intravital videomicroscopy: motility of TMBP-GFP cells in the spleen. The data set is classed as in vivo, rat. As to conditions: 3 d after T cell transfer, 6.5 μm/min in DMSO-treated controls, preliminary. The protocol: Intravital videomicroscopy of the spleen of vehicle (DMSO, left) A or BZ194 B-treated animals 3 d after T cell transfer. The ratio between stationary and motile MBP-specific GFP T cells (upper graphs) and cell trajectories (lower graphs, 10 min analysis) are shown. Stationary cells are defined as cells moving less than 10 μm in 10 minutes.
Animals were anesthetized by intraperitoneal injection of xylazine/ketamine (10 mg/kg and 50 mg/kg, respectively), with reapplied doses (1 mg/kg xylazine/5 mg/kg ketamine) administered as required. Adequate oxygenation was ensured by an oxygen (95% O2/5% CO2) mask fixed on the animal's snout. Body temperature was controlled by a heated pad. For spleen imaging temperature and moistness controlled chambers were constructed for inverted microscope settings. Surgically exposed spleens with intact vasculature were carefully placed into the chambers superfused with carbogenated HBSS (95% O25% CO2).
Time-lapse recordings were performed using an inverted microscope (Zeiss, Axiovert 200M) equipped with a 20×, 0.4 NA objective (Zeiss). Images were acquired using a Coolsnap-HQ camera (Photometrics, Roper Scientific, Tuscon, Ariz.) in 30 s time intervals and processed by MetaMorph (Visitron Systems, Puchheim, Germany). Image J software (freeware, provided by Wayne Rasband, NIH) was used to evaluate cell trajectories and velocity.

A further data set in a line: Solubility. As to conditions: excluded intravenous application. The data set is classed as physicochemical.
The subject of the next data set is rat MBP-specific T cells. The experiment in a line: Cytokine (IL2 mRNA) expression of in vitro-cultured MBP-specific T cells, quantitative PCR. The data set is classed as cell-based. As to conditions: IL2 quantitative PCR after 48 h. On the procedure: Cells were stimulated in presence of MBP-pulsed irradiated APCs and increasing concentrations of BZ194. After 48 h cells were collected for cytofluorometric cell count A and RNA extraction was performed for quantitative PCR analysis (IL2) B. Effect of BZ194 on pre-activated T cell blasts C. Amplification of MBP-specific T cells which had been incubated before in the presence of DMSO or 0.5 mM or 1 mM BZ194 D.
mRNA was extracted using standard protocols (Sigma-Aldrich) and reversed to cDNA (Invitrogen). Taqman analysis was performed as reported (Flügel et al. 2001, Immunity) using ABI Prim 7700 Sequence Detector “Taqman” (PE Applied Biosystems). The expression of a housekeeping gene (b-actin) was set into relation to the specific mRNA. Data were obtained by independent duplicate measurements.
BZ194 strongly influenced the function of rat MBP-specific T cells in vitro and in vivo. Proliferation and cytokine expression of the T cells was tested in vitro after incubation with irradiated MBP-pulsed thymic antigen presenting cells (in rats the commonly used APC type, ref. 5). […] Additionally, the expression of cytokine production by the T cells was reduced (FIG. 18B). Importantly, these effects were not due to toxicity of BZ194.

As to `CCCCN(CCCC)C(=O)C[n+]1cccc(C(=O)O)c1` [BZ52, 3-Carboxy-1-dibutylcarbamoylmethyl-pyridinium], in data set [1], the “IP3-induced Ca2+ signal” value is given as “no difference”.

For `CCCCCCCCNC(=O)C[n+]1cccc(C(=O)O)c1.[Br-]` [BZ194, 3-Carboxy-1-Octylcarbamoylmethyl-Pyridinium], the “TCR/CD3 complex mediated Ca2+ signalling” value in data set [2] is listed as “partially blocked”. Besides, the proliferation result in the data set with OVA-specific T cells is reported as “anti-proliferative effect”. In data set [3] (higher amounts of BZ194 i.p.), the adverse effect entry was “occasionally induced peritonitis”. Besides, in data set [3] (i.p., solubilized in DMSO, 180 mg/kg, 5 days), the “tolerability (inspection, weight development, immune cell count)” value was “well tolerated”. The “average velocity of TMBP-GFP cells” value in the data set with TMBP-GFP cells was determined as 3.5 μm/min. Also, the solubility entry in the data set “Solubility” is “Limited”. In addition, in the data set on rat MBP-specific T cells, the “cytokine (mRNA) production in vitro” value is listed as “suppressed; also recorded: reduced”.
